# Measurements reported in article PMC11305387, “AlphaFold accelerated discovery of psychotropic agonists targeting the trace amine–associated receptor 1” (Science Advances, 2024).
# pEC50: −log10 of the molar value.
# What was measured:
# [1] = Metabolic stability in liver microsomes; details: mouse liver microsomes, 1 μM
# H1 receptor = biological target: T1, H1 receptor (Homo sapiens, UniProt P35367); assay: PRESTO-TANGO β-arrestin recruitment; assay type: cell-based; details: concentration-response curves (fig. S10)
# T1 construct: TANGO fusion module (own knowledge, Kroeze et al.: C-terminal V2 tail, TEV site and tTA); 1000000068; host or cells: HTLA (HEK293-derived)
# T1 sequence (P35367 whole entry, the tested form may be a part): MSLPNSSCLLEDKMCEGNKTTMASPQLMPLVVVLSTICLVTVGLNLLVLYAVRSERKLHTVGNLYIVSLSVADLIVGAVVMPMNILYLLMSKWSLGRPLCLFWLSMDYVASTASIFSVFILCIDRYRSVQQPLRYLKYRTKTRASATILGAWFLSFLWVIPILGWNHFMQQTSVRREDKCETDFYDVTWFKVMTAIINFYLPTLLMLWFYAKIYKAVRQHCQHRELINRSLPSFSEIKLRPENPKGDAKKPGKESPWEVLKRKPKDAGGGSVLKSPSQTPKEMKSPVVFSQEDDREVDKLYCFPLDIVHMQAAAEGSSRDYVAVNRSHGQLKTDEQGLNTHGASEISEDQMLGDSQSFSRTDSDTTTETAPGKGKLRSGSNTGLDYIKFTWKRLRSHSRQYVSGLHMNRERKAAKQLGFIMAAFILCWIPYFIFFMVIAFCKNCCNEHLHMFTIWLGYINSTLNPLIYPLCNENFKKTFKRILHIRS
# 5-HT1D receptor = biological target: T2, 5-HT1D receptor (Homo sapiens, UniProt P28221); assay: PRESTO-TANGO β-arrestin recruitment; assay type: cell-based
# T2 construct: TANGO fusion module (own knowledge, Kroeze et al.: C-terminal V2 tail, TEV site and tTA); 1000000068; host or cells: HTLA (HEK293-derived)
# T2 sequence (P28221 whole entry, the tested form may be a part): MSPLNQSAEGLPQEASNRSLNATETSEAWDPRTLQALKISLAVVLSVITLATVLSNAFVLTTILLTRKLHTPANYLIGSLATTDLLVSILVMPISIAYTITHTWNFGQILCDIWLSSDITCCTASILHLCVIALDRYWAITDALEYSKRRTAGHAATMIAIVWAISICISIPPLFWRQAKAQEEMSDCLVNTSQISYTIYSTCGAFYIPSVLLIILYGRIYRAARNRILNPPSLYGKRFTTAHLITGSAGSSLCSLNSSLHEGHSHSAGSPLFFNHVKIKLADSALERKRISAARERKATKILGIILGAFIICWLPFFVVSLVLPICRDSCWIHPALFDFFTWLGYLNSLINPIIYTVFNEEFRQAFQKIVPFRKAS
# Experimental: Assessment of receptor activation by compounds at all human aminergic receptors were carried out using a modified version of the PRESTO-TANGO method. […] The plate was spun down, and 5 μl of a 1:25 dilution (in DPBS) of polyethylenimine (PEI) derivative (Transporter 5, Polysciences) was added (1:4 cDNA to PEI ratio) and incubated for 20 min at room temperature (RT). […] Luminescence signal was detected using a plate-reader (SPARK, Tecan) with 100-ms integration time and a 100-ms delay between well reads.
# WT and TAAR1-KO mice [2] = assay: Accelerating rotarod test; assay type: in vivo; details: 1 mg/kg i.p., 30 min after injection
# Experimental: To test compound 65 for sedative effects, mice were subjected to the accelerating rotarod test as previously described ([77]), with minor modifications. Mice were acclimatized to the rotarod (Ugo Basile, Gemonio, Italy) for 2 days before testing, starting at 4 rotations per minute (RPM) and accelerating to 40 RPM over 300 s. A baseline measure of performance, defined as the latency to fall from the rotarod with a cutoff time of 300 s, was taken before injection with either compound 65 (1 mg/kg), xylazine (5 mg/kg), or vehicle intraperitoneally. The mice were then retested 30 min after injection.
# [3] = tested on: TAAR1-WT and TAAR1-KO mice; assay: Core-body temperature (CBT) measurement; assay type: in vivo
# Experimental: Core temperature was determined by a rectal thermoprobe. Compounds or vehicle was administered intraperitoneally. A basal measurement was performed immediately before injection. Measurements were repeated every 30 min for 2 hours. Mean changes in CBT were calculated by subtracting the value from vehicle treated group at the corresponding time point. A washout of 1 week between different doses of compound 65 was applied, and mice were injected starting with the lowest dose first.
# WT and TAAR1-KO mice [4] = assay: Open-field test: baseline locomotion and MK-801-induced hyperlocomotion; assay type: in vivo; details: compound 65 1 mg/kg, risperidone 0.03 mg/kg
# Experimental: To assess the influence of the compound on baseline locomotion and MK-801–induced hyperlocomotion, mice were subjected to open-field testing on four occasions separated by 96 hours. The first occasion was a mock test session where all mice were injected with vehicle only, serving to reduce the effect of novelty on subsequent sessions. The next three sessions were true test sessions with pretreatment of either compound 65, risperidone, or vehicle, followed by MK-801. The R package agricolae was used to generate a randomized block design, randomizing treatment order across sex, genotype, and test session. After injection with either compound 65 (1 mg/kg), risperidone (0.03 mg/kg), or vehicle intraperitoneally, mice were immediately placed in the open field and recorded for 15 min. They were then injected with MK-801 (0.35 mg/kg intraperitoneal) and recorded again for 60 min. The OFT arena measured 46 cm by 46 cm with gray floor and walls. The brightness at the center of each arena was 30 to 50 lux. The arenas were cleaned with 70% ethanol between each animal. Video from a camera mounted in the ceiling was analyzed using EthoVision XT11.5 (Noldus) software.
# WT and TAAR1-KO mice [5] = assay: Pre-pulse inhibition (PPI) behavioral assay; assay type: in vivo; details: compound 65 1 mg/kg, risperidone 0.2 mg/kg i.p.
# Experimental: Measurements were performed using startle response chambers (San Diego Instruments, San Diego, CA, USA). Each chamber is sound-isolated and contains a Plexiglass animal enclosure attached to a platform and a loudspeaker that can produce both continuous white noise and acoustic pulses of varying intensities. The animal enclosure is large enough for the animal to turn around and make other movements to reduce restraint stress. Mouse startle responses to acoustic stimuli are transformed by a piezoelectric transducer under the platform into an analog signal. The transducers were calibrated before each experiment using a standardization unit (San Diego Instruments, San Diego, CA, USA), and the speakers were calibrated using a Type 2670 Microphone Preamplifier, a Type 4230 Sound Level Calibrator, and a Type 2610 Measuring Amplifier (Brüel & Kjær, Nærum, Denmark). To habituate the mice to the chambers, they were placed in the enclosure for 5 min, with 65-dB background white noise, on three different days before the start of experiments. PPI measurements were then conducted on each mouse on four occasions separated by 96 hours. The first occasion was a mock test session where all mice were injected with vehicle, serving to reduce the effect of novelty on subsequent sessions. The next three sessions were true test sessions with injection of either compound 65, risperidone, or vehicle. The R package agricolae was used to generate a randomized block design, randomizing treatment order across sex, genotype, and test session.
# Animals were brought to the testing room for habituation 60 min before the starting of tests. Thirty minutes before PPI measurements, mice were injected with either compound 65 (1 mg/kg), risperidone (0.2 mg/kg), or vehicle intraperitoneally. Each test session started with a 5-min background noise (65-dB white noise) habituation period. The background noise continued throughout the test session. The habituation period was followed by four blocks of trials, with the first and last blocks consisting of five pulse-only trials (40-ms, 120-dB pulse). During block 2, five trial types were presented five times each in a pseudo-randomized order. The trial types included pulse only, no stimulus (NOSTIM), and three different pre-pulse trials in which 20 ms pre-pulses of different intensities (68, 71, or 77 dB) preceded the startle pulse (120 dB) by a 100-ms interval. Block 3 contained the same numbers and types of trials as block 2, but in a different pseudorandom order. […] PPI data are shown as PPI%, which was calculated as [1 − (pre-pulse trials/startle-only trials)] × 100. Mean PPI was calculated by adding the average PPI% for all pre-pulse intensities (3, 6, and 12 dB) and dividing it by the number (i.e., 3) of pre-pulse intensities.
smiles,measurement,setting,value
CC1=C(c2ccco2)CNCC1 [Compound 65],intrinsic clearance CLint,[1],7 μl/min per mg
same,agonism at the H1 receptor,H1 receptor,lacked agonism
same,pEC50,5-HT1D receptor,< 6.00
same,Emax,5-HT1D receptor,75%
same,agonism at the 5-HT1D receptor,5-HT1D receptor; panel screen,agonism
same,effect on rotarod performance (sedation),WT and TAAR1-KO mice [2],did not influence rotarod performance
same,effect on CBT,[3]; TAAR1-KO mice,no decrease in CBT was observed
same,"maximal reduction of CBT, 5 mg/kg versus 1 mg/kg",[3]; TAAR1-WT mice,did not observe a significant increase in the maximal reduction of CBT
same,time of peak CBT reduction after injection,"[3]; TAAR1-WT mice, 0.5 and 1 mg/kg",30 min
same,time to return of CBT to baseline,"[3]; TAAR1-WT mice, 0.5 and 1 mg/kg",2 h
same,effect on CBT,"[3]; TAAR1-WT mice, 0.5 and 1 mg/kg i.p.",reduction of CBT
same,extent of CBT reduction,"[3]; WT mice, 1 mg/kg, 30 and 60 min after injection",~ 1 °C
same,effect on locomotion,WT and TAAR1-KO mice [4]; TAAR1-KO mice,did not exhibit such an effect
same,effect on MK-801–induced hyperlocomotion,"WT and TAAR1-KO mice [4]; WT mice, MK-801 0.35 mg/kg",significant decrease
same,effect on baseline locomotion,"WT and TAAR1-KO mice [4]; WT mice, versus vehicle",trend toward decreased locomotion
same,effect on PPI,WT and TAAR1-KO mice [5]; TAAR1-KO mice,did not observe any change in PPI
same,effect on PPI,WT and TAAR1-KO mice [5]; WT mice,elevated PPI at both 3- and 6-dB pre-pulse levels
